Experimental data taken from PMC546160 (Nucleic Acids Research, 2005).

Legend:
[1] = target: T1, HhaI methyltransferase (M.HhaI) (Haemophilus parahaemolyticus, UniProt P05102); assay: biochemical
T1 sequence (P05102 1-327): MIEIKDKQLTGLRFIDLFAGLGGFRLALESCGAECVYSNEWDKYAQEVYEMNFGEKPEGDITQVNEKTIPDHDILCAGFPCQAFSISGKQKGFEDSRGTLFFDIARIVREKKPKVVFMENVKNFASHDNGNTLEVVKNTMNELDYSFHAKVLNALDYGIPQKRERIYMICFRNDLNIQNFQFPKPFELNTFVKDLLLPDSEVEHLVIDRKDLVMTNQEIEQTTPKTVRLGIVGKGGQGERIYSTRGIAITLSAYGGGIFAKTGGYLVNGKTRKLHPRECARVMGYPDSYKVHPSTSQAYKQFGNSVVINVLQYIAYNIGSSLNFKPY

[2] = target: HhaI methyltransferase (M.HhaI) (Haemophilus parahaemolyticus, UniProt P05102, W41I); assay: biochemical

SMILES: C[S+](CC[C@H](N)C(=O)O)C[C@H]1O[C@@H](n2cnc3c(N)ncnc32)[C@H](O)[C@@H]1O (some centres unmarked) [AdoMet]
- Kd [1]: 4.4 µM
- Kd [2]: 14 µM
